Experiments:
[1] = tested on: Mus musculus; experiment: Percentage increase in seizure threshold at dose of 10 mg/kg in mouse maximal electroshock seizure threshold (MEST) model after po administration; type: functional
[2] = molecular target: SB-204269 binding site; experiment: Inhibition of [3H]-SB 204269 binding to rat forebrain membranes.; type: cell membranes, Membrane
[3] = tested on: Mus musculus; experiment: Percentage increase in seizure threshold at dose of 3 mg/kg in mouse maximal electroshock seizure threshold (MEST) model after po administration

| Compound | Log Ki [2] | Increase [1] [%] | Increase [3] [%] |
| --- | --- | --- | --- |
| CC1(C)Oc2ccc([N+](=O)[O-])cc2C(NC(=O)c2ccc(F)cc2)C1O (stereo not drawn) | -6.2 | 45 | 2 |
| CC1(C)Oc2ccc(C(N)=O)cc2C(NC(=O)c2ccc(F)cc2)C1O (stereo not drawn) | -6.06 | 6 | – |
| Cc1ccc2c(c1)C(NC(=O)c1ccc(F)cc1)C(O)C(C)(C)O2 (stereo not drawn) | -5.3 | 5 | – |
| CC1(C)Oc2ccc(F)cc2C(NC(=O)c2ccc(F)cc2)C1O (stereo not drawn) | -5.38 | 10 | – |
| CC(=O)c1cccc2c1C(NC(=O)c1ccc(F)cc1)C(O)C(C)(C)O2 (stereo not drawn) | -5.09 | – | – |
| CC(=O)c1cccc2c1OC(C)(C)C(O)C2NC(=O)c1ccc(F)cc1 (stereo not drawn) | -5 | 5 | – |
| CC1(C)Oc2ccc(S(=O)(=O)c3ccccc3)cc2C(NC(=O)c2ccc(F)cc2)C1O (stereo not drawn) | -5.84 | -7 | – |
| COC(=O)c1ccc2c(c1)C(NC(=O)c1ccc(F)cc1)C(O)C(C)(C)O2 (stereo not drawn) | -6.69 | 59 | – |
| CC(=O)c1ccc2c(c1)[C@H](NC(=O)c1ccccc1Cl)[C@@H](O)C(C)(C)O2 | -7.65 | – | 94 |

Second part, led by results:

| Log Ki [2] | Compound | Increase [1] [%] | Increase [3] [%] |
| --- | --- | --- | --- |
| -5.51 | CC(=O)c1ccc2c(c1)OC(C)(C)C(O)C2NC(=O)c1ccc(F)cc1 (stereo not drawn) | – | – |
| -7.3 | CC(=O)c1ccc2c(c1)[C@H](NC(=O)c1ccccc1)[C@@H](O)C(C)(C)O2 | 110 | 65 |
| -8.28 | CC(=O)c1ccc2c(c1)[C@H](NC(=O)c1cccc(I)c1)[C@@H](O)C(C)(C)O2 | 51 | – |
| -7.16 | CC(=O)c1ccc2c(c1)C(NC(=O)c1ccc(Cl)cc1)C(O)C(C)(C)O2 (stereo not drawn) | 55 | – |
| -6 | CC1(C)Oc2ccc(C#N)cc2[C@H](NC(=O)c2ccc(F)cc2)[C@H]1O | 41 | 15 |
| -6.8 | CCC(=O)c1ccc2c(c1)C(NC(=O)c1ccc(F)cc1)C(O)C(C)(C)O2 (stereo not drawn) | 35 | – |
| -5.9 | CC(=O)c1ccc2c(c1)C(NC(=O)C1CCCCC1)C(O)C(C)(C)O2 (stereo not drawn) | – | – |
| -6.35 | CC1(C)Oc2ccc(C(F)(F)C(F)(F)F)cc2[C@H](NC(=O)c2ccc(F)cc2)[C@H]1O | -8 | – |
| -6.12 | CC1(C)Oc2ccc(C(=O)c3ccccc3)cc2C(NC(=O)c2ccc(F)cc2)C1O (stereo not drawn) | – | – |
| < -4.5 | CC(=O)c1ccc2c(c1)[C@@H](NC(=O)c1ccc(F)cc1)[C@H](O)C(C)(C)O2 | 8 | – |
| -8.04 | CC(=O)c1ccc2c(c1)[C@H](NC(=O)c1cccc(Cl)c1)[C@@H](O)C(C)(C)O2 | 90 | 78 |
| -7.32 | CC(=O)c1ccc2c(c1)[C@H](NC(=O)c1ccc(F)cc1)[C@@H](O)C(C)(C)O2 [CARABERSAT] | 102 | 89 |

Source: ChEMBL document CHEMBL1129393, “Synthesis of novel trans-4-(substituted-benzamido)-3,4-dihydro-2H-benzo[b]-pyran-3-ol derivatives as potential anticonvulsant agents with a distinctive binding profile” (J Med Chem, 1996)
